This passage reports IC50 results from patent US20220054465A1, “(PYRIDIN-2-YL)AMINE DERIVATIVES AS TGF-BETA R1 (ALK5) INHIBITORS FOR THE TREATMENT OF CANCER” (Nexys Therapeutics, Inc., priority 2018, published 2022).

Broadly, the IC50 is the concentration at which inhibition is half-maximal.

In the test the test system is HEK-Blue TGFβ cell. Nature of the test: HEK-Blue TGFβ cellular reporter gene assay (SEAP readout). The format is cell-based. The conditions noted are these: HEK-Blue TGFβ cells stimulated with TGF-β, 22-23 h incubation, SEAP read at 630 nm. The protocol: HEK-Blue TGFβ Cellular Reporter Gene Assay:
HEK-Blue TGFβ cell was purchased from Invivogen. Cell suspension of 2.5×10^5 cells/ml was prepared using Test Medium (DMEM containing 0.5% v/v heat-inactivated FBS). TGF-β working solution (6 ng/ml) was obtained through diluting TGF-β stock solution (10 μg/ml) by Test Medium before use. Eight different concentrations of all compounds were obtained by 3× gradient dilution method using TGF-β working solution. Add 100 μl of Test Medium (Vehicle) or test article or TGF-β working solution per well of a flat-bottom 96-well plate. Add 100 μl of HEK-Blue TGF-β cell suspension per well. Incubate the plate at 37° C. in a CO2 incubator for 22-23 h. Add 150 μl of resuspended QUANTI-Blue per well of a new flat-bottom 96-well plate. Add 30 μl of induced HEK-Blue TGF-β cells supernatant. Avoid pipetting at the bottom of wells. Incubate the plate at 37° C. incubator for 30-40 min. Determine secreted embryonic alkaline phosphatase (SEAP) levels using a spectrophotometer at 630 nm.
The inhibition was calculated using the equation: […]
On the technique in general: Reporter assays use an easily measured gene product as a stand-in for the process of interest.

In turn, `O=C(O)CCc1cccc(Nc2cc(Oc3cn(C4CC4)nc3C3CCOCC3)ccn2)c1` [Example 68, 3-(3-((4-((1-cyclopropyl-3-(tetrahydro-2H-pyran-4-yl)-1H-pyrazol-4-yl)oxy)pyridin-2-yl)amino)phenyl)propanoic acid] registered a 50% inhibitory concentration (IC50) of 0.74 µM.
Then `O=C(O)CCc1cc(Nc2cc(Oc3cn(C4CC4)nc3C3CCOCC3)ccn2)ccn1` [Example 69], with > 10 µM; and `Cc1cc(Oc2ccnc(Nc3cccc(C(C)(C)C(=O)O)c3)c2)c(-c2ccccn2)nc1C` [Example 71, 2-(3-((4-((5,6-dimethyl-[2,2′-bipyridin]-3-yl)oxy)pyridin-2-yl)amino)phenyl)-2-methylpropanoic acid], with 0.14 µM.
As to `Cc1ccc(Oc2ccnc(Nc3cccc(C(C)(C)C(=O)O)c3)c2)c(-c2ccccn2)n1` [Example 72, 2-methyl-2-(3-((4-((6-methyl-[2,2′-bipyridin]-3-yl)oxy)pyridin-2-yl)amino)phenyl)propanoic acid], the IC50 amounted to 0.18 µM. This IC50 and that of the molecule before are within 1.5-fold of each other.
Then `Cc1ccc(Oc2ccnc(Nc3cccc(C(C)(C)C(=O)O)c3)c2)c(C)n1` [Example 73], with 0.14 µM; and `Cc1nc(-c2ccccc2)ccc1Oc1ccnc(Nc2cccc(C(C)(C)C(=O)O)c2)c1` [Example 75], with 8.12 µM.
Then `Cc1cc(Oc2ccnc(Nc3cccc(OCC(=O)O)c3)c2)c(-c2ccccn2)nc1C` [Example 76], with > 10 µM; and `Cc1ccc(Oc2ccnc(Nc3cccc(C4(C(=O)O)CC4)c3)c2)c(-c2ccccc2)n1` [Example 77, 1-(3-((4-((6-methyl-2-phenylpyridin-3-yl)oxy)pyridin-2-yl)amino)phenyl)cyclopropane-1-carboxylic acid], with 0.08 µM; and `Cc1ccc(Oc2ccnc(Nc3cccc(C(C)(C)C(=O)O)c3)c2)c(-c2cccc(Cl)c2)n1` [Example 78], with 0.11 µM.
Then `Cc1ccc(Oc2ccnc(Nc3cccc(C(C)(C)C(=O)O)c3)c2)c(-c2ccc(Cl)cc2)n1` [Example 79], with 0.18 µM.
`Cc1ccc(Oc2ccnc(Nc3cccc(C(C)(C)C(=O)O)c3)c2)c(-c2ccccc2Cl)n1` [Example 80]: the concentration for half-maximal inhibition (IC50) was found to be 0.11 µM. Against the preceding molecule, the IC50 is about 1.6-fold lower.
Then `CCc1nc(C)c(Oc2ccnc(Nc3cccc(C(C)(C)C(=O)O)c3)c2)cc1C` [Example 82], with 0.018 µM; and `CCc1nc(C)c(Oc2ccnc(Nc3cccc(C(C)(C)C(=O)O)c3)c2)cc1Cl` [Example 83], with 0.035 µM.
In turn, `CCc1ccc(Oc2ccnc(Nc3cccc(C(C)(C)C(=O)O)c3)c2)c(-c2ccccn2)n1` [Example 84] gave a half-maximal inhibitory concentration (IC50) of 0.055 µM.
Next, `CCc1nc(-c2ccccn2)c(Oc2ccnc(Nc3cccc(C(C)(C)C(=O)O)c3)c2)cc1C` [Example 85]: 0.044 µM; `COc1ccccc1-c1nc(C)ccc1Oc1ccnc(Nc2cccc(C(C)(C)C(=O)O)c2)c1` [Example 86]: 0.24 µM; `COc1cccc(-c2nc(C)ccc2Oc2ccnc(Nc3cccc(C(C)(C)C(=O)O)c3)c2)c1` [Example 87]: 0.094 µM.
Consider `COc1ccc(-c2nc(C)ccc2Oc2ccnc(Nc3cccc(C(C)(C)C(=O)O)c3)c2)cc1` [Example 88], for which the IC50 amounted to 0.039 µM.
Then `Cc1ccc(Oc2ccnc(Nc3cccc(C(C)(C)C(=O)O)c3)c2)c(-c2ccccc2F)n1` [Example 89], with 0.027 µM; and `Cc1ccc(Oc2ccnc(Nc3cccc(C(C)(C)C(=O)O)c3)c2)c(-c2cccc(F)c2)n1` [Example 90], with 0.024 µM.
Next, `Cc1ccc(Oc2ccnc(Nc3cccc(C(C)(C)C(=O)O)c3)c2)c(-c2ccc(F)cc2)n1` [Example 91]: 0.018 µM; `Cc1ccc(Oc2ccnc(Nc3cccc(C(C)(C)C(=O)O)c3)c2)c(-c2ccccc2C)n1` [Example 92]: 0.08 µM; `Cc1cccc(-c2nc(C)ccc2Oc2ccnc(Nc3cccc(C(C)(C)C(=O)O)c3)c2)c1` [Example 93]: 0.12 µM.
Next, `Cc1ccc(-c2nc(C)ccc2Oc2ccnc(Nc3cccc(C(C)(C)C(=O)O)c3)c2)cc1` [Example 94]: 0.064 µM; `Cc1ccc(Oc2ccnc(Nc3cccc(C(C)(C)C(=O)O)c3)c2)c(-c2ccccc2C#N)n1` [Example 95]: 0.29 µM; `Cc1ccc(Oc2ccnc(Nc3cccc(C(C)(C)C(=O)O)c3)c2)c(-c2cccc(C#N)c2)n1` [Example 96]: 0.19 µM.
On to `Cc1ccc(Oc2ccnc(Nc3cccc(C(C)(C)C(=O)O)c3)c2)c(-c2ccc(C#N)cc2)n1` [Example 97], for which the IC50 worked out at 0.2 µM.
Then `Cc1cc(Oc2ccnc(Nc3cccc(C(C)(C)C(=O)O)c3)c2)c(-c2ccccc2)nc1C` [Example 98], with 0.051 µM; and `Cc1nc(-c2ccccc2)c(Oc2ccnc(Nc3cccc(C(C)(C)C(=O)O)c3)c2)cc1Cl` [Example 99], with 0.023 µM; and `CCc1cc(Oc2ccnc(Nc3cccc(C(C)(C)C(=O)O)c3)c2)c(-c2ccccc2)nc1C` [Example 100], with 2.59 µM.
Next, `Cc1nc(-c2ccccc2)c(Oc2ccnc(Nc3cccc(C(C)(C)C(=O)O)c3)c2)cc1C1CC1` [Example 101]: 3.31 µM.
Next, `Cc1nc(-c2ccccc2)c(Oc2ccnc(Nc3cccc(C(C)(C)C(=O)O)c3)c2)cc1C(C)C` [Example 102]: 2.71 µM; `Cc1nc(-c2ccccc2)c(Oc2ccnc(Nc3cccc(C(C)(C)C(=O)O)c3)c2)cc1C(C)(C)O` [Example 103]: > 10 µM; `CC(C)(C(=O)O)c1cccc(Nc2cc(Oc3ccc(C4CC4)nc3-c3ccccc3)ccn2)c1` [Example 105]: 0.13 µM.
`CCCc1ccc(Oc2ccnc(Nc3cccc(C(C)(C)C(=O)O)c3)c2)c(-c2ccccc2)n1` [Example 106] showed an IC50 of 0.12 µM.
Take `CC(C)c1ccc(Oc2ccnc(Nc3cccc(C(C)(C)C(=O)O)c3)c2)c(-c2ccccc2)n1` [Example 107]: the half-inhibitory concentration (IC50) amounted to 0.18 µM.
Then `Cc1ccc(Oc2ccnc(Nc3cccc(C(C)(C)C(=O)O)c3)c2)c(C2CCOCC2)n1` [Example 108], with 0.9 µM.
Next, `Cc1cc(Oc2ccnc(Nc3cccc(C(C)(C)CC(=O)O)c3)c2)c(-c2ccccn2)nc1C` [Example 109]: 0.051 µM; `Cc1ccc(Oc2ccnc(Nc3cccc(C(C)(C)CC(=O)O)c3)c2)c(-c2ccccc2)n1` [Example 110]: 0.03 µM; `O=C(O)c1cccc(Nc2cc(Oc3cn(C4CC4)nc3C3CCOCC3)ccn2)c1` [Example 111]: 6.2 µM.
On to `Cc1cc(Nc2cc(Oc3cn(C4CC4)nc3C3CCOCC3)ccn2)cc(C(=O)O)c1` [Example 112], for which the 50% inhibitory concentration (IC50) was determined as 1.67 µM.
Next, `CC(C)(C(=O)O)c1ccc(Nc2cc(Oc3cn(C4CC4)nc3C3CCOCC3)ccn2)cc1` [Example 113]: 0.51 µM; `Cc1ccc(Nc2cc(Oc3cn(C4CC4)nc3C3CCOCC3)ccn2)cc1C(=O)O` [Example 114]: 2.54 µM; `Cc1ccc(Nc2cc(Oc3cn(C4CC4)nc3C3CCOCC3)ccn2)cc1CC(=O)O` [Example 115]: 1.1 µM.
Then `O=C(O)c1cc(Nc2cc(Oc3cn(C4CC4)nc3C3CCOCC3)ccn2)ccn1` [Example 117], with > 10 µM; and `CC(C)(C(=O)O)c1cccc(Nc2cc(Oc3cn(C4CCC4)nc3C3CCOCC3)ccn2)c1` [Example 118], with 0.31 µM.
The molecule `CC(C)(C(=O)O)c1cccc(Nc2cc(Oc3cn(C4CC4)nc3-c3ccccc3)ccn2)c1` [Example 119] showed a concentration for half-maximal inhibition (IC50) of 0.013 µM.
Then `Cn1cc(Oc2ccnc(Nc3cccc(C(C)(C)C(=O)O)c3)c2)c(-c2ccccc2)n1` [Example 120], with 0.05 µM.
Then `CC(C)(C(=O)O)c1cccc(Nc2cc(Oc3cn(C(F)F)nc3-c3ccccc3)ccn2)c1` [Example 121], with 0.078 µM; and `CCn1cc(Oc2ccnc(Nc3cccc(C(C)(C)C(=O)O)c3)c2)c(-c2ccccc2)n1` [Example 122], with 0.029 µM.
Then `CC(C)(C(=O)O)c1cccc(Nc2cc(Oc3cn(CC(F)F)nc3-c3ccccc3)ccn2)c1` [Example 123], with 0.18 µM; and `CC(C)n1cc(Oc2ccnc(Nc3cccc(C(C)(C)C(=O)O)c3)c2)c(-c2ccccc2)n1` [Example 124], with 0.19 µM.
As for `CC(C)(C(=O)O)c1cccc(Nc2cc(Oc3cn(C4CCC4)nc3-c3ccccc3)ccn2)c1` [Example 125], half-maximal inhibition (IC50) was put at 0.066 µM.
Next, `CC(C)(C(=O)O)c1cccc(Nc2cc(Oc3cn(C4COC4)nc3-c3ccccc3)ccn2)c1` [Example 126]: 0.2 µM.
Next, `CC(C)(C(=O)O)c1cccc(Nc2cc(Oc3cn(C4CC4)nc3C3CCCCC3)ccn2)c1` [Example 127]: 0.012 µM; `CC(C)(C(=O)O)c1cccc(Nc2cc(Oc3cn(C4CC4)nc3C3CCCC3)ccn2)c1` [Example 128]: 0.022 µM.
`CC(C)(C(=O)O)c1cccc(Nc2cc(Oc3cn(C4CC4)nc3C3CCC3)ccn2)c1` [Example 129] showed an IC50 of 0.029 µM.
In the case of `CC(C)(C(=O)O)c1cccc(Nc2cc(Oc3cn(C4CC4)nc3-c3ccccn3)ccn2)c1` [Example 130], the IC50 is > 10 µM.
Then `Cc1ccc(Oc2ccnc(Nc3cccc(C(F)(F)C(=O)O)c3)c2)c(-c2ccccc2)n1` [Example 131, 2,2-difluoro-2-(3-((4-((6-methyl-2-phenylpyridin-3-yl)oxy)pyridin-2-yl)amino)phenyl)acetic acid], with 1.73 µM.
